According to US5776720A, “Assay reagent” (priority 1995, dated 1998):
Several values for one entry are separate records, joined by “and”; a condition that tells them apart may be missing. Identical values can stand only once. Numbered stars: 1 amine (or outer) side, 2 acyl side, 3 side chain; on linkers, the order of the positions; unused ones are H or OH. Bridge positions count the residues as written; N and C are the ends. Peptide text beside a SMILES is read from it. I, II: the chains in the order shown. Rhodamine110 = O=C1OC2(c3ccc(N[*:1])cc3Oc3cc(N[*:2])ccc32)c2ccccc21

Tests used:
Assay type in all cases: cell-based, human
lymphocytes = experiment: Normal leukocyte enzyme activity (Table 3A), lymphocytes; parameters: unit not given here; details: normal donors
Source text: (§1) The measured fluorescence intensity can be converted from mean channel fluorescence (in peak or integrated mode) to MESF (molecules of equivalent soluble fluorochrome, Flow Cytometry Standards Corp. , San Juan, Puerto Rico) or International Units of hydrolysis per cell. A normal range of enzyme activity is established by assaying males and females in sufficient quantity to characterize the population levels statistically.
(§2) A normal in house adult donor pool was drawn, recording sex and determining that no known disease state was present at the time of sample draw. Criteria for rejecting samples included patients under medication, patients with infection or inflammation of any type, colds and flu as well as any known medical illness such as cancer, heart ailment and high blood pressure. A donor list of 75 patients has been developed and a mean and 2 sd range established. A subgroup of "super normals" was developed from this list by examining the 75 patients to determine which group falls closest to the mean for all enzymes in all cell types tested. These patients were used as the "wellness index" or best group of "normalcy" patients. If a study required the use of children or newborns then this same format was used to develop a data base for these age groups.

granulocytes = experiment: Normal leukocyte enzyme activity (Table 3A), granulocytes; parameters: unit not given here; details: normal donors
Source text: as §1, §2

granulocyte = experiment: Peptidases to distinguish leukemia from non-leukemia (Table 6C), grans
Source text: Artificial intelligence was used to analyze data of cellular enzyme functions, and determine normal and disease states. Peptidases were used to distinguish leukemia from non-leukemia (output pattern). For input patterns lymphocyte and granulocyte cell types were used with aminopeptidases, cathepsins and dipeptidylpeptidase enzyme activities. In this Example, illustrated in Tables 6A-6C, three normals and three leukemia patients were used as known output patterns for the neural network to learn (in practice, the larger the learning set the more accurate unknown prediction will be). Unknowns were then presented to the learned algorithm as shown in the test case examples. Clinical diagnosis was confirmed by physicians. The trained neural network was able to correctly classify the leukemia from the non-leukemia.

monocytes = experiment: Normal leukocyte enzyme activity (Table 3A), monocytes; parameters: unit not given here; details: normal donors
Source text: as §1, §2

erythrocytes = experiment: Normal erythrocyte enzyme activity (Table 3B); details: normal donors
Experimental: A sample, consisting of whole blood (in EDTA, Heparin or ACD) or dissociated tissue or body fluids (synovial fluid) or cell culture media is obtained and stored in a manner so as not to decrease viability. The sample is washed sufficiently to remove plasma, media, body fluid, debris and extra-cellular enzymes. The wash media consists of a physiologically balanced buffered salt solution. The washed cells are incubated at 37° C. 50 μL of sample and 25 μL of substrate media are mixed together and allowed to incubate at 37° C. for a predetermined amount of time. At the end of the incubation period, the sample is then measured for fluorescence.
as §2

[1] = test system: Ala-aminopeptidase and Lys-aminopeptidase, Dipeptidyl peptidase IV and Cathepsin D; experiment: Panel of substrates in normals and HIV+ patients (Table 4)
Experimental: A panel of assay compounds are assembled consisting of Ala-aminopeptidase and Lys-aminopeptidase, Dipeptidyl peptidase IV (Ala-Ala)2 rhodamine 110 and Cathepsin D to indicate possible TB infection in AIDS related cases.
A panel of enzymatic substrates is performed consisting of Ala-aminopeptidase and Lys-aminopeptidase, Dipeptidyl peptidase IV (Ala-Ala)2 rhodamine 110 and Cathepsin D to indicate possible TB infection in AIDS related cases.

MONOS = experiment: Aberrant enzyme activities in febrile children (Table 7), monos
GRANS = experiment: Aberrant enzyme activities in febrile children (Table 7), grans

NCC(=O)Nc1ccc2c(c1)Oc1cc(NC(=O)CN)ccc1C21OC(=O)c2ccccc21 [GLY, (Gly)2 Rho 110]
NORMAL LEUKOCYTE ENZYME ACTIVITY, LYMPHS Mean (lymphocytes): 18.18
NORMAL LEUKOCYTE ENZYME ACTIVITY, GRANS Mean (granulocytes): 29.48
enzyme activity (granulocyte; N192 NORMAL): 48.67

CC(C)C[C@H](N)C(=O)NCC(=O)Nc1ccc2c(c1)Oc1cc(NC(=O)CNC(=O)[C@@H](N)CC(C)C)ccc1C21OC(=O)c2ccccc21 [LG]
NORMAL LEUKOCYTE ENZYME ACTIVITY, LYMPHS Mean (lymphocytes): 13.83
NORMAL LEUKOCYTE ENZYME ACTIVITY, MONOS Mean (monocytes): 44.56
NORMAL LEUKOCYTE ENZYME ACTIVITY, GRANS Mean (granulocytes): 29.99
enzyme activity (granulocyte; N193 NORMAL): 3.55
enzyme activity (granulocyte; N199* NORMAL (later found to have cervical cancer)): 2.02

CC(C)C[C@H](NC(=O)[C@@H]1CCCN1C(=O)CN)C(=O)NCC(=O)N1CCC[C@H]1C(=O)Nc1ccc2c(c1)Oc1cc(NC(=O)[C@@H]3CCCN3C(=O)CNC(=O)[C@H](CC(C)C)NC(=O)[C@@H]3CCCN3C(=O)CN)ccc1C21OC(=O)c2ccccc21 [GPLGP, (H--Gly--Pro--Leu--Gly--Pro)2 Rho 110.2TFA] (I: H-GPLGP / II: H-GPLGP; linker I:C-II:C via Rhodamine110)
NORMAL LEUKOCYTE ENZYME ACTIVITY, LYMPHS Mean (lymphocytes): 8.97
NORMAL LEUKOCYTE ENZYME ACTIVITY, MONOS Mean (monocytes): 23.38
NORMAL LEUKOCYTE ENZYME ACTIVITY, GRANS Mean (granulocytes): 16.88
NORMAL E[…] ACTIVITY MEAN (erythrocytes): 0.164

NC(=O)CC[C@H](N)C(=O)N[C@@H](CO)C(=O)Nc1ccc2c(c1)Oc1cc(NC(=O)[C@H](CO)NC(=O)[C@@H](N)CCC(N)=O)ccc1C21OC(=O)c2ccccc21 (relative stereo) [GLN--SER*]
MEAN DELTA FL ([1]; HIV + PATIENTS): 13.7 and 12.7
MEAN DELTA FL ([1]; NORMALS): 11.9 and 6.1

N=C(N)NCCC[C@H](N)C(=O)NCC(=O)N[C@@H](CCC(=O)O)C(=O)N[C@@H](CO)C(=O)Nc1ccc2c(c1)Oc1cc(NC(=O)[C@H](CO)NC(=O)[C@H](CCC(=O)O)NC(=O)CNC(=O)[C@@H](N)CCCNC(=N)N)ccc1C21OC(=O)c2ccccc21 (stereo partly drawn) [RGES, (Arg-Gly-Glu-Ser)2 Rho 110] (I: H-RGES / II: H-RGES; linker I:C-II:C via Rhodamine110)
NORMAL LEUKOCYTE ENZYME ACTIVITY, LYMPHS Mean (lymphocytes): 1.43
NORMAL LEUKOCYTE ENZYME ACTIVITY, MONOS Mean (monocytes): 8.37
NORMAL LEUKOCYTE ENZYME ACTIVITY, GRANS Mean (granulocytes): 3.96
NORMAL E[…] ACTIVITY MEAN (erythrocytes): 0.118

NCCCC[C@H](N)C(=O)Nc1ccc2c(c1)Oc1cc(NC(=O)[C@@H](N)CCCCN)ccc1C21OC(=O)c2ccccc21 [LYS, (H--L--Lys)2 Rho 110.4TFA]
NORMAL LEUKOCYTE ENZYME ACTIVITY, LYMPHS Mean (lymphocytes): 1.16
NORMAL LEUKOCYTE ENZYME ACTIVITY, MONOS Mean (monocytes): 7.56
NORMAL LEUKOCYTE ENZYME ACTIVITY, GRANS Mean (granulocytes): 4.27
enzyme activity (granulocyte; N194 NORMAL): 1.66

O=C1OC2(c3ccc(OC4O[C@H](CO)[C@@H](O)[C@H](O)[C@H]4O)cc3Oc3cc(OC4O[C@H](CO)[C@@H](O)[C@H](O)[C@H]4O)ccc32)c2ccccc21 (stereo partly drawn) [DIGLUC (FL)]
NORMAL LEUKOCYTE ENZYME ACTIVITY, LYMPHS Mean (lymphocytes): 0.23
NORMAL LEUKOCYTE ENZYME ACTIVITY, MONOS Mean (monocytes): 1.89
NORMAL LEUKOCYTE ENZYME ACTIVITY, GRANS Mean (granulocytes): 0.45
NORMAL E[…] ACTIVITY MEAN (erythrocytes): 0.110

ALA--GLY*
MEAN DELTA FL ([1]; HIV + PATIENTS): 29.7
MEAN DELTA FL ([1]; HIV + PATIENTS, listed as ALA--GLY****): 39.9
MEAN DELTA FL ([1]; NORMALS): 31.6
MEAN DELTA FL ([1]; NORMALS, listed as ALA--GLY****): 48.0

dichlorofluorescein
NORMAL E[…] ACTIVITY MEAN (erythrocytes): 0.268
aberrant enzyme activity (MONOS; P89 Viral Stomatitis): + (>0.25 Increase over normal range)
aberrant enzyme activity (MONOS; P92 Adenitis): + (>0.25 Increase over normal range)
aberrant enzyme activity (MONOS; P95 Viral Syndrome): + (>0.25 Increase over normal range)
aberrant enzyme activity (MONOS; P96 Viral Syndrome): + (>0.25 Increase over normal range)
aberrant enzyme activity (MONOS; P97 Pyelonephritis): + (>0.25 Increase over normal range)
aberrant enzyme activity (MONOS; P101 Fever-Unknown Origin): + (>0.25 Increase over normal range)
aberrant enzyme activity (MONOS; P103 Viral Syndrome): °
aberrant enzyme activity (GRANS; P89 Viral Stomatitis): + (>0.25 Increase over normal range)
aberrant enzyme activity (GRANS; P92 Adenitis): + (>0.25 Increase over normal range)
aberrant enzyme activity (GRANS; P95 Viral Syndrome): + (>0.25 Increase over normal range)
aberrant enzyme activity (GRANS; P96 Viral Syndrome): + (>0.25 Increase over normal range)
aberrant enzyme activity (GRANS; P97 Pyelonephritis): + (>0.25 Increase over normal range)
aberrant enzyme activity (GRANS; P101 Fever-Unknown Origin): + (>0.25 Increase over normal range)
aberrant enzyme activity (GRANS; P103 Viral Syndrome): + (>0.25 Increase over normal range)
